According to patent US12077503B2, “Substituted cyclic amides and their use as herbicides” (FMC CORPORATION, priority 2015, dated 2024):

Legend:
Assay type in all cases: in vivo
[1] = test system: sedge, umbrella (small-flower umbrella sedge, Cyperus difformis); experiment: Test B flooded paddy test; details: Cyperus difformis, Flood, 250 g ai/ha; scale of 0 to 100 where 0 is no effect and 100 is complete control; read-out: Sedge, Umbrella plant response rating
Outline: (§1)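 Flooding to 3 cm over soil accompanied treatment, which consisted of adding compound to the standing water around 2-leaf plants; depth was then maintained. Visual assessment versus controls followed at 13 to 15 d (scale 0–100, 0 meaning no effect).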

[2] = test system: barnyardgrass (Echinochloa crus-galli); experiment: Test B flooded paddy test; details: Echinochloa crus-galli, Flood, 250 g ai/ha; scale of 0 to 100 where 0 is no effect and 100 is complete control; read-out: Barnyardgrass plant response rating
Outline: as §1

[3] = test system: ducksalad (Heteranthera limosa); experiment: Test B flooded paddy test; details: Heteranthera limosa, Flood, 250 g ai/ha; scale of 0 to 100 where 0 is no effect and 100 is complete control; read-out: Ducksalad plant response rating
Outline: as §1

[4] = test system: rice (Oryra sativa); experiment: Test B flooded paddy test; details: Oryza sativa, Flood, 250 g ai/ha; scale of 0 to 100 where 0 is no effect and 100 is complete control; read-out: Rice plant response rating
Outline: as §1

[5] = test system: ragweed (common ragweed, Ambrosia elatior); experiment: Test A preemergence; details: Ambrosia artemisiifolia, pre-emergence, 240 h
Outline: (§2)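 Seeds sprayed preemergence with a directed soil spray, or plants at 2 to 10 cm height and one- to two-leaf stage sprayed postemergence, with test chemicals in a non-phytotoxic solvent mixture containing surfactant, in loam soil–sand blend. Injury rated visually against untreated controls after about 10 d in greenhouse, 0 (no effect) to 100 (complete control).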

[6] = test system: ryegrass, Italian (Italian ryegrass, Lolium multiflorum); experiment: Test A preemergence; details: Lolium multiflorum, pre-emergence, 240 h
Outline: as §2

[7] = test system: Kochia (Kochia scoparia); experiment: Test A preemergence; details: Bassia scoparia, pre-emergence, 240 h
Outline: as §2

[8] = test system: barnyardgrass (Echinochloa crus-galli); experiment: Test A preemergence; details: Echinochloa crus-galli, pre-emergence, 240 h
Outline: as §2

[9] = test system: pigweed (Amaranthus retroflexus); experiment: Test A preemergence; details: Amaranthus retroflexus, pre-emergence, 240 h
[10] = test system: giant foxtail (Setaria faberii); experiment: Test A preemergence; details: Setaria faberi, pre-emergence, 240 h
Outline: as §2

[11] = test system: ragweed (common ragweed, Ambrosia elatior); experiment: Test A postemergence; details: Ambrosia artemisiifolia, post-emergence, 240 h, 125 g ai/ha, Postemergence; visual injury after approximately 10 d; 0 to 100 scale where 0 is no effect and 100 is complete control; read-out: Plant response rating, Ragweed
Outline: as §2

[12] = test system: Galium (catchweed bedstraw, Galium aparine); experiment: Test A postemergence; details: Galium, post-emergence, 240 h, 125 g ai/ha, Postemergence; visual injury after approximately 10 d; 0 to 100 scale where 0 is no effect and 100 is complete control; read-out: Plant response rating, Galium
Outline: as §2

[13] = test system: ryegrass, Italian (Italian ryegrass, Lolium multiflorum); experiment: Test A postemergence; details: Lolium multiflorum, post-emergence, 240 h, 125 g ai/ha, Postemergence; visual injury after approximately 10 d; 0 to 100 scale where 0 is no effect and 100 is complete control; read-out: Plant response rating, Ryegrass, Italian
Outline: as §2

[14] = test system: blackgrass (Alopecurus myosuroides); experiment: Test A postemergence; details: Alopecurus myosuroides, post-emergence, 240 h, 125 g ai/ha, Postemergence; visual injury after approximately 10 d; 0 to 100 scale where 0 is no effect and 100 is complete control; read-out: Plant response rating, Blackgrass
Outline: as §2

[15] = test system: Kochia (Kochia scoparia); experiment: Test A postemergence; details: Bassia scoparia, post-emergence, 240 h, 125 g ai/ha, Postemergence; visual injury after approximately 10 d; 0 to 100 scale where 0 is no effect and 100 is complete control; read-out: Plant response rating, Kochia
Outline: as §2

[16] = test system: barnyardgrass (Echinochloa crus-galli); experiment: Test A postemergence; details: Echinochloa crus-galli, post-emergence, 240 h, 125 g ai/ha, Postemergence; visual injury after approximately 10 d; 0 to 100 scale where 0 is no effect and 100 is complete control; read-out: Plant response rating, Barnyardgrass
Outline: as §2

[17] = test system: pigweed (Amaranthus retroflexus); experiment: Test A postemergence; details: Amaranthus retroflexus, post-emergence, 240 h, 125 g ai/ha, Postemergence; visual injury after approximately 10 d; 0 to 100 scale where 0 is no effect and 100 is complete control; read-out: Plant response rating, Pigweed
Outline: as §2

[18] = test system: giant foxtail (Setaria faberii); experiment: Test A postemergence; details: Setaria faberi, post-emergence, 240 h, 125 g ai/ha, Postemergence; visual injury after approximately 10 d; 0 to 100 scale where 0 is no effect and 100 is complete control; read-out: Plant response rating, Foxtail, Giant
Outline: as §2

[19] = test system: wheat (Triticum aestivum); experiment: Test A postemergence; details: Triticum aestivum, post-emergence, 240 h, 125 g ai/ha, Postemergence; visual injury after approximately 10 d; 0 to 100 scale where 0 is no effect and 100 is complete control; read-out: Plant response rating, Wheat
Outline: as §2

[20] = test system: corn (Zea mays); experiment: Test A postemergence; details: Zea mays, post-emergence, 240 h, 125 g ai/ha, Postemergence; visual injury after approximately 10 d; 0 to 100 scale where 0 is no effect and 100 is complete control
Outline: as §2

SMILES: CCOc1cccc([C@H]2CNC(=O)[C@@H]2C(=O)Nc2ccc(F)cc2F)c1 [Compound 951]
- pest or weed control at 250 g/ha [1]: 0%
- pest or weed control at 250 g/ha [2]: 30%
- pest or weed control at 250 g/ha [3]: 90%
- pest or weed control at 250 g/ha [4]: 0%
- pest or weed control at 125 g/ha ([5]; 125 g ai/ha, Preemergence, visual injury rating after approximately 10 d, read-out: Ragweed plant response rating (0 to 100 scale, 0 is no effect, 100 is complete control)): 0%
- pest or weed control at 500 g/ha ([5]; 500 g ai/ha, preemergence, visual injury rating about 10 d after treatment, 0 to 100 scale (0 no effect, 100 complete control), read-out: Ragweed plant response rating): 0%
- pest or weed control at 125 g/ha ([6]; 125 g ai/ha, Preemergence, visual injury rating after approximately 10 d, read-out: Ryegrass, Italian plant response rating (0 to 100 scale, 0 is no effect, 100 is complete control)): 0%
- pest or weed control at 500 g/ha ([6]; 500 g ai/ha, preemergence, visual injury rating about 10 d after treatment, 0 to 100 scale (0 no effect, 100 complete control), read-out: Ryegrass, Italian plant response rating): 0%
- pest or weed control at 125 g/ha ([7]; 125 g ai/ha, Preemergence, visual injury rating after approximately 10 d, read-out: Kochia plant response rating (0 to 100 scale, 0 is no effect, 100 is complete control)): 0%
- pest or weed control at 500 g/ha ([7]; 500 g ai/ha, preemergence, visual injury rating about 10 d after treatment, 0 to 100 scale (0 no effect, 100 complete control), read-out: Kochia plant response rating): 20%
- pest or weed control at 125 g/ha ([8]; 125 g ai/ha, Preemergence, visual injury rating after approximately 10 d, read-out: Barnyardgrass plant response rating (0 to 100 scale, 0 is no effect, 100 is complete control)): 90%
- pest or weed control at 500 g/ha ([8]; 500 g ai/ha, preemergence, visual injury rating about 10 d after treatment, 0 to 100 scale (0 no effect, 100 complete control), read-out: Barnyardgrass plant response rating): 90%
- pest or weed control at 125 g/ha ([9]; 125 g ai/ha, Preemergence, visual injury rating after approximately 10 d, read-out: Pigweed plant response rating (0 to 100 scale, 0 is no effect, 100 is complete control)): 0%
- pest or weed control at 500 g/ha ([9]; 500 g ai/ha, preemergence, visual injury rating about 10 d after treatment, 0 to 100 scale (0 no effect, 100 complete control), read-out: Pigweed plant response rating): 0%
- pest or weed control at 125 g/ha ([10]; 125 g ai/ha, Preemergence, visual injury rating after approximately 10 d, read-out: Foxtail, Giant plant response rating (0 to 100 scale, 0 is no effect, 100 is complete control)): 70%
- pest or weed control at 500 g/ha ([10]; 500 g ai/ha, preemergence, visual injury rating about 10 d after treatment, 0 to 100 scale (0 no effect, 100 complete control), read-out: Foxtail, Giant plant response rating): 70%
- pest or weed control at 125 g/ha [11]: 0%
- pest or weed control at 125 g/ha [12]: 0%
- pest or weed control at 125 g/ha [13]: 0%
- pest or weed control at 125 g/ha [14]: 0%
- pest or weed control at 125 g/ha [15]: 0%
- pest or weed control at 125 g/ha [16]: 70%
- pest or weed control at 125 g/ha [17]: 0%
- pest or weed control at 125 g/ha [18]: 0%
- plant injury at 125 g/ha [19]: 0%
- Corn plant response rating (crop injury, 0 = no effect, 100 = complete kill) at 125 g/ha [20]: 0%
